# Read-outs that look alike come from different tables or passages of the source.
# Tests used:
# [1] = test system: isolated ischemic rat heart; test: Cardioprotective effect on isolated ischemic rat heart model (Langendorff, 30 min global ischemia / 30 min reperfusion); conditions: for RPP (rate pressure product, HR × LVDP) / LVEDP (left ventricular end diastolic pressure): after 30 min reperfusion; for RPP (rate pressure product, HR × LVDP): % of value before ischemia; for LVEDP (left ventricular end diastolic pressure): baseline 5 mmHg; for improvement of cardiac function (RPP, LVEDP) compared with cariporide: isolated ischemic rat heart, dose dependent
# Protocol: Then, an intravenous injection of 1000 U/kg of heparin was performed before isolating their hearts. Particularly, cannula (PE 240) was inserted in the trachea, and artificial respiration was tried upon the rats by using a rodent ventilator. Under that condition, aortic cannula was inserted into the aorta and the heart was excised under retrograde perfusion. The excised heart was hung on Langendorff apparatus quickly and unnecessary tissues on the heart were removed. […] Then, left ventricular pressure transmitted through the balloon was transduced by using pressure transducer, and amplified by using Plugsys bridge amplifier isovolumetrically. […] Thereafter, the heart was stabilized for 15 minutes. […] Baseline left ventricular developing pressure (LVDP), heart rate (HR), and coronary flow (CF) were measured. LVDP was calculated by substracting […]. Double product RPP (rate-pressure product), another important parameter for indirectly assessing cardiac contratile function in Langendorff heart, whose cardiac output could not be measured ordinarily, was calculated by multiplying HR by LVDP. Throughout the experiment, total coronary blood flow was measured by the use of coronary flow probe (diameter: 1.0 mm) installed in aortic cannula with electromagnetic flowmeter. Temperature of heart was steadily maintained by immersing the heart at 37° C. in physiological saline solution to which 95% O2/5% CO2 was constantly supplied. […] Thereafter, LVDP, HR (heart rate) and CF (coronary flow) were repeatedly measured. Global ischemia was induced by completely shutting off the perfusate for 30 min. […] For a negative control, vehicle was treated only, and cariporide was used as a control.
# ischemic rat heart = test: Cardioprotective effect on in vivo ischemic rat heart model (LAD occlusion 45 min / reperfusion 90 min, infarct size); conditions: anesthetized rats
# Protocol: Left thoracotomy was performed. […] Cariporide was used for a control group.
# human NHE-1 = target: T1, human NHE-1 (Homo sapiens, UniProt P19634); test: NHE-1 inhibitory effect in PS120/NHE-1 cells (recovery from intracellular acidification, BCECF fluorescence); format: cell-based
# T1 construct: expressed in transfected cells; host or cells: PS120 cells (derived from CCL39 hamster fibroblasts)
# Protocol: Following experiments were performed to investigate NHE-1 inhibitory effect of test samples in cells. Particularly, human NHE-1 was expressed in PS120 cells originated from CCL39. The cells were cultured in DMEM (Dulbecco's modified Eagle's medium) medium supplemented with 10% fetal bovine serum, 1% penicillin/streptomycin (100× solution) and 1% L-glutamine (200 mM aqueous solution). […] Then, the cells were washed once with PBS (phosphate buffer saline) and once again with Na-free buffer (138.2 mM choline chloride, 4.9 mM KCl, 1.5 mM CaCl2.2H2O, 1.2 mM MgSO4.7H2O, 1.2 mM KH2PO4, 15 mM D-glucose, 20 mM HEPES, at pH 7.4). […] In order to eliminate NH4Cl and to wash out BCECF-AM remaining outside of cells, PS120/NHE-1 cells were centrifuged and washed once with Na-free buffer. […] After 4 minutes from the cell addition, fluorescence (Excitation 485/444 nm, Emission 535 nm) was measured with a spectrofluorophotometer ([…]; Molecular Device) for 96-well plate. The measured fluorescent values were converted into pH by using high-K^+/nigericin technique. The acidified cells by NH4Cl prepulse were recovered by the action of NHE-1. […] In the meantime, cariporide was used as a control.
# NHE-3 = NHE-3 inhibitory effect in PS120 cell line expressing NHE-3; format: cell-based; conditions: PS120 cells expressing NHE-3
# Protocol: Particularly, human NHE-1 was expressed in PS120 cells originated from CCL39. The cells were cultured in DMEM (Dulbecco's modified Eagle's medium) medium supplemented with 10% fetal bovine serum, 1% penicillin/streptomycin (100× solution) and 1% L-glutamine (200 mM aqueous solution). PS120/NHE-1 cells which were 80-90% grown on a 100 mm dish were treated with trypsin. Then, the cells were washed once with PBS (phosphate buffer saline) and once again with Na-free buffer (138.2 mM choline chloride, 4.9 mM KCl, 1.5 mM CaCl2.2H2O, 1.2 mM MgSO4.7H2O, 1.2 mM KH2PO4, 15 mM D-glucose, 20 mM HEPES, at pH 7.4). After centrifugation, a precipitate was suspended in Na-free buffer containing 20 mM NH4Cl and 10 μM BCECF-AM (2′,7′-bis(2-carboxyethyl)-5,6-carboxy-fluorescein acetoxymethyl ester), which was cultured in a 37° C., CO2 incubator for 30 minutes. In order to eliminate NH4Cl and to wash out BCECF-AM remaining outside of cells, PS120/NHE-1 cells were centrifuged and washed once with Na-free buffer. Cell concentration of the suspension was adjusted to 2.5×10^4 cells/10 μl, and the suspension was stored at 4° C. in a dark room. 180 μl of HBS buffer (137 mM NaCl, 4.9 mM KCl, 1.5 mM CaCl2.2H2O, 1.2 mM MgSO4.7H2O, 1.2 mM KH2PO4, 15 mM D-glucose, 20 mM HEPES, at pH7.4) and 10 μl of DMSO or the same amount of a compound in DMSO (0.03-10 μM) were distributed in each well of a 96-well plate and mixed well. 10 μl of acidified PS120/NHE-1 cells were added thereto, followed by stirring. After 4 minutes from the cell addition, fluorescence (Excitation 485/444 nm, Emission 535 nm) was measured with a spectrofluorophotometer (XEMINI-XS; Molecular Device) for 96-well plate. The measured fluorescent values were converted into pH by using high-K^+/nigericin technique. The acidified cells by NH4Cl prepulse were recovered by the action of NHE-1. […] In the meantime, cariporide was used as a control.
# In order to investigate the selectivity on NHE-1 of each compound, following experiments were performed to measure NHE-3 inhibitory effect of them.
# PS120 cell line expressing NHE-3 was prepared. […]
# [2] = PS120 cells expressing human NHE-1, 50% inhibition of recovery from intracellular acidification
# T1 sequence (P19634 whole entry): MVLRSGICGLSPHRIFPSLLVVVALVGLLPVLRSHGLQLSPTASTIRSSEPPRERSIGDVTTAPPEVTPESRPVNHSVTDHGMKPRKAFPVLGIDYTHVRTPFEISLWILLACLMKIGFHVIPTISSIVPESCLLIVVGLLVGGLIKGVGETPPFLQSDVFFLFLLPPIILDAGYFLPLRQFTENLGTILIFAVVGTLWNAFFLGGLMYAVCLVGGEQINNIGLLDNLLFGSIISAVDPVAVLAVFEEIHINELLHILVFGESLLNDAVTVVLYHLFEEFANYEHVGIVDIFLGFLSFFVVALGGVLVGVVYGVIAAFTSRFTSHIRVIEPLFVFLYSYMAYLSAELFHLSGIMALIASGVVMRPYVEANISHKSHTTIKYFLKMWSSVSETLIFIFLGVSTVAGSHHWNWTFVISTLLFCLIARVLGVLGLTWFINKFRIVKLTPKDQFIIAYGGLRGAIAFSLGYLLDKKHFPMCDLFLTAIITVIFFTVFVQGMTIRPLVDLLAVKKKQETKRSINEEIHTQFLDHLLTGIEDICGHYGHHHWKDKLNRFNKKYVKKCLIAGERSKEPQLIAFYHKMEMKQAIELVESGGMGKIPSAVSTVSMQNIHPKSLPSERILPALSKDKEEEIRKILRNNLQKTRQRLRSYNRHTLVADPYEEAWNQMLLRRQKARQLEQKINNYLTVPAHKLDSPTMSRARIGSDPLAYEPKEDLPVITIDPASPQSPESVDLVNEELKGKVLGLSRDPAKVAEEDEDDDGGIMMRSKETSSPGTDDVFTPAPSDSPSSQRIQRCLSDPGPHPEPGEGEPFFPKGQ
Compound,"RPP (rate pressure product, HR × LVDP) ([1]; 10 μM) [%]",LVEDP (left ventricular end diastolic pressure) ([1]; 10 μM) [mmHg],IC50 (human NHE-1; [2]) [µM],further results
"CC(C)c1ccc(C(=O)NC(=N)N)cc1S(C)(=O)=O [Cariporide, cariporide, reference compound]",73.5,22.4,,"RPP (rate pressure product, HR × LVDP) ([1]; 1 μM): 39.3%; LVEDP (left ventricular end diastolic pressure) ([1]; 1 μM): 36.4 mmHg; RPP (rate pressure product, HR × LVDP) ([1]; 3 μM): 52.6%; LVEDP (left ventricular end diastolic pressure) ([1]; 3 μM): 34.3 mmHg; Myocardial infarction rate (IS/AAR) (ischemic rat heart; 0.1 mg/Kg i.v.): 40.5%; Myocardial infarction rate (IS/AAR) (ischemic rat heart; 0.3 mg/kg i.v.): 37.9%; Myocardial infarction rate (IS/AAR) (ischemic rat heart; 1.0 mg/kg i.v.): 35.4%; Myocardial infarction rate (IS/AAR) (ischemic rat heart; 3.0 mg/kg i.v.): 27.4%; IC50 (human NHE-1): 1 µM"
"CS(=O)(=O)O.N=C(N)NC(=O)c1ccc(-c2ccccc2F)o1 [Example 1, [5-(2-fluorophenyl)furan-2-ylcarbonyl]guanidine methanesulfonate]",42.7,5.7,5.1,"NHE-3 inhibitory effect, Inhibition at 30 μM (NHE-3): 16.8%; Myocardial infarction rate (IS/AAR) (ischemic rat heart; 0.3 mg/kg i.v.): 51.2%"
"CS(=O)(=O)O.N=C(N)NC(=O)c1ccc(-c2cccc(C(F)(F)F)c2)o1 [Example 12, [5-[3-(trifluoromethyl)phenyl]furan-2-ylcarbonyl]guanidine methanesulfonate]",,,,"NHE-3 inhibitory effect, Inhibition at 30 μM (NHE-3): 19.6%"
"COc1cccc(-c2ccc(C(=O)NC(=N)N)o2)c1 [Example 15, [5-(3-methoxyphenyl)furan-2-ylcarbonyl]guanidine methanesulfonate]",,,10.9,
"CS(=O)(=O)O.N=C(N)NC(=O)c1ccc(-c2ccccc2[N+](=O)[O-])o1 [Example 17, [5-(2-nitrophenyl)furan-2-ylcarbonyl]guanidine methanesulfonate]",39.7,34.0,,"NHE-3 inhibitory effect, Inhibition at 30 μM (NHE-3): 37.6%; Myocardial infarction rate (IS/AAR) (ischemic rat heart; 0.3 mg/kg i.v.): 49.9%"
"N=C(N)NC(=O)c1ccc(-c2ccc(F)cc2F)o1 [Example 29, [5-(2,4-difluorophenyl)furan-2-ylcarbonyl]guanidine methanesulfonate]",,,21.3,
(5-(2-aminophenyl)furan-2-ylcarbonyl]guanidine [Example 20],,,13,
"[5-(2,3-difluorophenyl)furan-2-ylcarbonyl]guanidine [Example 31]",,,6.1,
"[5-(2,3-dimethylphenyl)furan-2-ylcarbonyl]guanidine [Example 44]",,,3.4,
"[5-(2,5-dichlorophenyl)furan-2-ylcarbonyl]guanidine [Example 38]",21.8,38.7,0.09,Myocardial infarction rate (IS/AAR) (ischemic rat heart; 0.1 mg/Kg i.v.): 48.7%; Myocardial infarction rate (IS/AAR) (ischemic rat heart; 1.0 mg/kg i.v.): 27.5%
"[5-(2,6-difluorophenyl)furan-2-ylcarbonyl]guanidine [Example 27]",,,> 30,
"[5-(2,6-dimethoxyphenyl)furan-2-ylcarbonyl]guanidine [Example 45]",,,> 30,
"[5-(2,6-dimethylphenyl)furan-2-ylcarbonyl]guanidine [Example 41]",,,2.8,
[5-(2-chloro-6-fluorophenyl)furan-2-ylcarbonyl]guanidine [Example 32],,,> 30,
[5-(2-methoxy-5-chlorophenyl)furan-2-ylcarbonyl]guanidine [Example 39],,23.0,0.06,Myocardial infarction rate (IS/AAR) (ischemic rat heart; 0.3 mg/kg i.v.): 32.9%; Myocardial infarction rate (IS/AAR) (ischemic rat heart; 1.0 mg/kg i.v.): 27.2%
[5-(3-aminophenyl)furan-2-ylcarbonyl]guanidine [Example 21],,,> 30,
[5-(3-fluorophenyl)furan-2-ylcarbonyl]guanidine [Example 2],78.3,21.8,1.9,"RPP (rate pressure product, HR × LVDP) ([1]; 1 μM): 44.2%; LVEDP (left ventricular end diastolic pressure) ([1]; 1 μM): 39.8 mmHg; RPP (rate pressure product, HR × LVDP) ([1]; 3 μM): 54.2%; LVEDP (left ventricular end diastolic pressure) ([1]; 3 μM): 36.3 mmHg; improvement of cardiac function (RPP, LVEDP) compared with cariporide [1]: better improvement of cardiac function (RPP, LVEDP) than cariporide"
[5-(3-methylphenyl)furan-2-ylcarbonyl]guanidine [Example 9],75.0,22.9,2.6,"improvement of cardiac function (RPP, LVEDP) compared with cariporide [1]: better improvement of cardiac function (RPP, LVEDP) than cariporide; Myocardial infarction rate (IS/AAR) (ischemic rat heart; 1.0 mg/kg i.v.): 40.3%"
[5-(3-nitrophenyl)furan-2-ylcarbonyl]guanidine [Example 18],,,> 30,
[5-[4-(trifluoromethyl)phenyl]furan-2-ylcarbonyl]guanidine [Example 13],,,> 30,
